Results taken from patent US12569506B2, “Methods of treating osteonecrosis with LLP2A-bisphosphonate compounds” (The Regents of the University of California, priority 2016, dated 2026).
“Also recorded” adds a separate entry of the source. Like-named read-outs stand apart in the source and are kept apart here.

Tests used:
VEGF = test: Serum VEGF levels by ELISA in glucocorticoid-treated mice; type: in vivo; conditions: day 56; GC from day 1; LLP2A-Ale given at day 28; ELISA in duplicate (FIG. 4)
Protocol: FIG. 4. Serum VEGF-A levels in glucocorticoid-treated mice. Mice treated with placebo (PL), glucocorticoid (GC), glucocorticoid and 250 μg/kg LLP2A-Ale (GC+LLP2A-Ale), glucocorticoid and PTH (GC+PTH), or glucocorticoid and PTH and 250 μg/kg LLP2A-Ale (GC+PTH+LLP2A-Ale) were measured for serum levels of VEGF.
Increased blood vessel formation can also be assessed by marker analysis. For example, VEGF is a pro-angiogenic factor and stimulates new blood vessel formation. […] PTH was given 20 ug/kg 5× a week, while LLP2A-Ale was given at […] at day 28 only.

[1] = test system: dexamethasone-treated mice; type: in vivo, BALB/c mice; conditions: for Samples with three or more osteonecrosis characteristics (number/total) / Samples with three or more osteonecrosis characteristics (percent): day 90
Protocol: FIG. 7. Prevalence of osteonecrosis in dexamethasone-treated mice. Mice were treated for 90 days with dexamethasone (Dex), 4 mg/l in drinking water or placebo (PL) (fresh water). At day 30, the Dex-treated mice were re-randomized to Dex alone, Dex+250 μg/kg LLP2A-Ale, Dex+500 μg/kg LLP2A-Ale, and Dex+750 μg/kg LLP2A-Ale. The LLP2A-Ale treatments were given on days 30, 45, 60, and 75. All mice were euthanized at day 90. Right and left distal femurs were fixed in 10% neutral buffer formalin and decalcified. The specimens were dehydrated, embedded in paraffin, cut into 5 micron sections and H&E stained. The sections were evaluated for osteonecrosis by bright light microscopy using modified criteria reported by Yang et al., J. Orthop. Res., 27:169-75 (2009)), which defines osteonecrosis by the presence of the five following characteristics: (1) empty lacunae, (2) pyknotic osteocyte nuclei in areas of empty lacunae and necrosis of adjacent bone marrow, (3) presence of excessive fat cells in the bone marrow, (4) cartilage degradation, and (5) presence of fibrin thrombi in the blood vessels. Each GC-treated group and placebo group were assessed for all five osteonecrosis characteristics or the presence of at least three of the five osteonecrosis characteristics described above.
The efficacy of LLP2A-Ale was evaluated over a 90 day study using a mouse model of glucocorticoid-induced osteonecrosis. Seven week-old male mice (BALB/c (n=80, Jackson laboratories, USA) were housed in a sanitary ventilated animal room maintained at 20° C. with a 12-hour light/dark cycle. All animals were handled according to the USDA animal care guidelines with the approval of the UC Davis Committee on Animal Research. The mice were given water and standard commercial rodent chow (22/5 Rodent Diet; Teklad, Madison, WI) ad libitum. The animals were weight randomized to either a placebo group (fresh water) or glucocorticoid only (4 mg/L dexamethasone (Dex) in drinking water) and treated for 90 days. At day 30, the Dex-treated mice were then re-randomized to Dex alone, Dex+250 μg/kg LLP2A-Ale, Dex+500 μg/kg LLP2A-Ale and Dex+750 μg/kg LLP2A-Ale. The LLP2A-Ale treatments were given on days 30, 45, 60 and 75. Additionally, 0.1 mg/kg methotrexate was administered twice weekly by subcutaneous injection from day 1-42 in all groups receiving glucocorticoid.
All the mice were euthanized at day 90. The body weights of all the study animals were assessed each week. If the study animals had 10% loss of body weight compared to the previous week, the dose of dexamethasone was reduced to 2 mg/L, until weight gain was observed. All of the animals were injected with calcein (30 mg/kg) and alizarin red (20 mg/kg) at 7 and 2 days before euthanization.
Both the right and left distal femurs were fixed in 10% neutral buffered formalin and were shaken for 3 days, then decalcified in 5% EDTA until the bones were fully decalcified. The specimens were then processed in ascending concentrations of ethanol and embedded in paraffin. Tissue sections were cut into 5 microns sections, stained with hematoxylin and eosin and evaluated for the presence of osteonecrosis by bright field microscopy at 20× magnification. Experimental methods are also described in Mohan et al., Calif Tissue Int (2016) doi:10.1007/s00223-016-0195-6, which is incorporated herein by reference in its entirety for all purposes. Osteonecrosis was detected using modified criteria reported by Yang el al., (a mouse model for glucocorticoid-induced osteonecrosis: Effect of a steroid holiday. J Orthop Res. 2009; 27:169-75) which defines osteonecrosis as requiring all of the following changes: (1) empty lacunae, (2) pyknotic osteocyte nuclei in areas of empty lacunae and necrosis of adjacent bone marrow, (3) presence of excessive fat cells in the bone marrow, (4) cartilage degradation and (5) presence of fibrin thrombi in the blood vessels. […]

[2] = test system: dexamethasone-treated mice; test: 30 and 45 day prevention study: incidence of glucocorticoid-induced osteonecrosis; type: in vivo, BALB/c mice; conditions: 30 or 45 days; Dex + LLP2A-Ale 250 or 500 μg/kg, or Dex + 40 μg/kg hPTH five times a week (FIG. 12)
Protocol: FIG. 12. Reduction in incidence of glucocorticoid-induced osteonecrosis in mice treated with recombinant LLP2A-Ale. Mice were randomized into placebo (PL) (fresh water), dexamethasone (Dex) 4 mg/l in drinking water, Dex+250 μg/kg LLP2A-Ale, Dex+500 μg/kg LLP2A-Ale, or Dex+40 μg/kg hPTH (1-34) groups for a 30 day treatment period or a 45 day treatment period. The incidence of Dex-induced osteonecrosis was 57% on day 30 and 73% on day 45.
The efficacy of LLP2A-Ale and hPTH (1-34) was evaluated over a 30 and 45 day study using a mouse model of glucocorticoid-induced osteonecrosis. Seven week-old male BALB/c mice were randomized into Placebo group (fresh water), glucocorticoid only (4 mg/L dexamethasone (Dex) in drinking water), Dex+250 μg/kg LLP2A-Ale, Dex+500 μg/kg LLP2A-Ale, or Dex+40 μg/kg hPTH (administered five times a week) for 30 or 45 days. At day 30 or 45, the mice were sacrificed. Study endpoints included histological evidence of osteonecrosis, bone mass, and prevalent blood vessels (CD31 and Endomucin expression) in the distal femur, and was performed as set forth in Example 2. Non-parametric Kruskal-Wallis tests were used to determine the differences between the groups.

[3] = Dex + LLP2A-Ale 250 μg/kg on days 30, 45, 60, 75
[4] = Dex + LLP2A-Ale 500 μg/kg on days 30, 45, 60, 75
[5] = LLP2A-Ale 750 μg/kg on days 30, 45, 60, 75

Compound: Cc1ccccc1NC(=O)Nc1ccc(CC(=O)N[C@@H](CCCCNC(=O)/C=C/c2cccnc2)C(=O)N[C@@H](CCCC(=O)O)C(=O)NC2(C(=O)NCCOCCOCCNC(=O)CCC(=O)NCCOCCOCCNC(=O)CCC(=O)N[C@@H](CCCCNC(=O)[C@H](N)CSC3CC(=O)N(CC4CCC(C(=O)NCCCC(O)(P(=O)(O)O)P(=O)(O)O)CC4)C3=O)C(N)=O)CCCCC2)cc1 (stereo partly drawn) [LLP2A-Ale]
- Serum levels of VEGF (VEGF): returned the levels of serum VEGF to those of placebo treated animals
- Samples with three or more osteonecrosis characteristics (number/total) [1, 3]: 12/16
- Samples with three or more osteonecrosis characteristics (percent) [1, 3]: 75%
- Samples with three or more osteonecrosis characteristics (number/total) [1, 4]: 9/16
- Samples with three or more osteonecrosis characteristics (percent) [1, 4]: 56%
- Number of mice per group showing all five (or at least three) osteonecrosis characteristics ([1]; Dex alone vs Dex+LLP2A-Ale groups, day 90 (FIG. 7)): decreased
- Samples with three or more osteonecrosis characteristics (number/total) [1, 5]: 11/16
- Samples with three or more osteonecrosis characteristics (percent) [1, 5]: 69%
- Prevalence/incidence of glucocorticoid-induced osteonecrosis lesions (in words) [2]: prevented incident GC-induced osteonecrosis lesions; also recorded: reduced the incidence and severity of osteonecrosis; also recorded: prevented glucocorticoid-induced osteonecrotic lesions
